# Patent publication US4346087A, “Antibacterial surface active agent containing azaalkenelactam” (priority 1979, dated 1982)
# Read-outs that look alike come from different tables or passages of the source.
# Key:
# [1] = system: Staphylococcus epidermidis; test: MIC against Staphylococcus epidermidis; assay type: cell-based
# Description: (§1) Below are described the antibacterial activities of the compounds in the compositions according to this invention. The results of antibacterial activity tests on the N-alkyl-substituted azaalkenelactams and their derivatives having a carboxylate radical of Examples 1 to 70 were as shown in Tables 1 to 3.
# (§2) The testing method complied with the standard method of Japan Sociaty of Chemotherapy.
# [2] = system: Pasteurella multocida; test: MIC against Pasteurella multocida; assay type: cell-based
# Description: as §1, §2
# [3] = system: Staphylococcus aureus FDA 209P; test: MIC against Staphylococcus aureus FDA 209P; assay type: cell-based
# Description: (§3) Below are described the antibacterial activities of the compounds in the compositions according to this invention.
# as §2
# [4] = system: Escherichia coli NIHJ; test: MIC against Escherichia coli NIHJ; assay type: cell-based
# Description: as §3, §2
# [5] = system: Bacillus subtilis ATCC 6633; test: MIC against Bacillus subtilis ATCC 6633; assay type: cell-based
# Description: as §1, §2
# [6] = system: Desulfovibrio desulfuricans IFO 13699; test: MIC against Desulfovibrio desulfuricans; assay type: cell-based
# Description: as §3, §2
# [7] = system: Salmonella typhinurium; test: microbe, parasite or virus in culture; assay type: cell-based, Salmonella typhimurium
# Description: as §1, §2
# [8] = system: Streptococcus faecalis; test: MIC against Streptococcus faecalis; assay type: cell-based
# Description: as §1, §2
# [9] = system: Pseudomonas aruginosa IFO 3443; test: MIC against Pseudomonas aeruginosa; assay type: cell-based
# Description: as §1, §2
# [10] = Staphylococcus epidermidis, Table 3, heart infusion agar, 37° C., 24 hours, read-out: MIC
# [11] = Staphylococcus aureus, FDA209P, Table 1, azaalkenelactams, heart infusion agar, 37° C., 24 hours, read-out: MIC
# [12] = Escherichia coli, Table 1, azaalkenelactams, heart infusion agar, 37° C., 24 hours, read-out: MIC
# [13] = Bacillus subtilis, ATCC6633, Table 3, heart infusion agar, 37° C., 24 hours, read-out: MIC
# [14] = Desulfovibrio desulfuricans, IFO13699, Table 1, azaalkenelactams, heart infusion agar, 37° C., 24 hours, read-out: MIC
# [15] = Table 3, heart infusion agar, 37° C., 24 hours, read-out: MIC
# [16] = Enterococcus faecalis, Table 3, heart infusion agar, 37° C., 24 hours, read-out: MIC
# [17] = Pseudomonas, IFO3443, Table 3, heart infusion agar, 37° C., 24 hours, read-out: MIC
# [18] = Pasteurella multocida, Table 3, heart infusion agar, 37° C., 24 hours, read-out: MIC
# [19] = Bacillus subtilis, ATCC6633, 24 h
# [20] = Table 3, heart infusion agar, 37° C., 24 hours
# [21] = Table 1, azaalkenelactams, heart infusion agar, 37° C., 24 hours
# [22] = Staphylococcus aureus, FDA209P, 24 h
# [23] = Desulfovibrio desulfuricans, IFO13699, 24 h
# [24] = Staphylococcus epidermidis, 24 h
# [25] = Escherichia coli, Table 2, derivatives having a carboxylate radical, heart infusion agar, 37° C., 24 hours, read-out: MIC
# [26] = Table 2, derivatives having a carboxylate radical, heart infusion agar, 37° C., 24 hours
Compound,"MIC [1, 10] [µg/mL]","MIC [3, 11] [µg/mL]","MIC [7, 15] [µg/mL]","MIC [2, 18] [µg/mL]","MIC [5, 19] [µg/mL]","MIC ([4]; Escherichia coli, 24 h) [µg/mL]","MIC ([8]; Enterococcus faecalis, 24 h) [µg/mL]","MIC ([9]; Pseudomonas, IFO3443, 24 h) [µg/mL]","MIC [3, 22] [µg/mL]","MIC [6, 23] [µg/mL]",further results
"CCCCCCCCCCCCNCCN1CCN=C(C)CC1=O [Example 2, 4-dodecylaminoethyl-7-methyl-3,6-dihydro-2H-1,4-diazepin-5-one]",1.56,12.5,3.12,–,–,–,–,–,–,–,"MIC ([2]; Pasteurella multocida, 24 h): < 1.56 µg/mL; MIC [4, 12]: 25 µg/mL; MIC [5, 13]: 12.5 µg/mL; MIC [6, 14]: 12.5 µg/mL; MIC [8, 16]: 12.5 µg/mL; MIC [9, 17]: 100 µg/mL"
"CCCCCCCCCCCCCCC(O)CNCCN1CCN=C(C)CC1=O (stereo not shown) [Example 29, 4-(2-hydroxyhexadecyl)aminoethyl-7-methyl-3,6-dihydro-2H-1,4-diazepin-5-one]",1.56,6.25,3.12,< 1.56,3.12,–,–,–,–,–,"MIC [4, 12]: 25 µg/mL; MIC [6, 14]: 3.12 µg/mL; MIC [8, 16]: 6.25 µg/mL; MIC [9, 17]: 100 µg/mL"
"CCCCCCCCCCCCCCNCCN1CCCN=CC(C)C1=O (stereo not shown) [Example 48, 1-tetradecylaminoethyl-3-methyl-3,6,7,8-tetrahydro-1,5-diazocin-2-one]",1.56,3.12,3.12,< 1.56,6.25,12.5,6.25,50,–,–,"MIC [6, 14]: 3.12 µg/mL"
"CCCCCCCCCCCCCCC(O)CNCCN1CCN=CC(C)(C)C1=O (stereo not shown) [Example 59, 4-(2-hydroxyhexadecyl)aminoethyl-6,6-dimethyl-3-hydro-2H-1,4-diazepin-5-one]",1.56,6.25,3.12,< 1.56,3.12,–,–,–,–,–,"MIC [4, 12]: 25 µg/mL; MIC [6, 14]: 3.12 µg/mL; MIC [8, 16]: 6.25 µg/mL; MIC [9, 17]: 100 µg/mL"
"CCCCCCCCCCCCCCNCCN1CCN=CCCC1=O [Example 53, 4-tetradecylaminoethyl-2,3,6,7-tetrahydro-1,4-diazocin-5-one]",1.56,1.56,3.12,< 1.56,3.12,6.25,6.25,100,–,–,"MIC [6, 14]: 3.12 µg/mL"
"4-(2-hydroxyhexadecyl)aminoethyl-6-methyl-3,6-dihydro-2H-1,4-diazepin-5-one [Example 41]",–,–,–,–,–,–,–,–,–,–,"MIC [1, 20]: 1.56 µg/mL; MIC [2, 20]: < 1.56 µg/mL; MIC [3, 21]: 3.12 µg/mL; MIC [4]: 25 µg/mL; MIC [5, 20]: 3.12 µg/mL; MIC [6, 21]: 3.12 µg/mL; MIC [8, 20]: 6.25 µg/mL; MIC [9, 20]: 100 µg/mL"
"CCCCCCCCCCCCCCC(O)CNCCN1CCN=CCCC1=O (stereo not shown) [Example 54, 4-(2-hydroxyhexadecyl)aminoethyl-2,3,6,7-tetrahydro-1,4-diazocin-5-one]",1.56,–,3.12,< 1.56,3.12,6.25,6.25,200,6.25,6.25,–
"CCCCCCCCCCCCCCC(O)CNCCN1CCCN=CC(C)(C)C1=O (stereo not shown) [Example 61, 1-(2-hydroxyhexadecyl)aminoethyl-3,3-dimethyl-6,7,8-trihydro-1,5-diazocin-5-one]",1.56,–,3.12,< 1.56,3.12,25,6.25,200,6.25,6.25,–
"CCCCCCCCCCCCCCNCCN1CCN=C(C)CC1=O [Example 35, 4-tetradecylaminoethyl-7-methyl-3,6-dihydro-2H-1,4-diazepin-5-one]",–,1.56,1.56,–,–,6.25,–,–,–,–,"MIC [1, 24]: < 1.56 µg/mL; MIC ([2]; Pasteurella multocida, 24 h): < 1.56 µg/mL; MIC [5, 13]: 3.12 µg/mL; MIC [6, 14]: 1.56 µg/mL; MIC [8, 16]: 3.12 µg/mL; MIC [9, 17]: 54 µg/mL"
"CCCCCCCCCCCCCCC(O)CNCCN1CCCN=CC(C)C1=O (stereo not shown) [Example 49, 1-(2-hydroxyhexadecyl)aminoethyl-3-methyl-3,6,7,8-tetrahydro-1,5-diazocin-2-one]",–,–,–,–,–,–,–,–,–,–,"MIC [1, 20]: 1.56 µg/mL; MIC [2, 20]: < 1.56 µg/mL; MIC [3, 21]: 3.12 µg/mL; MIC [4]: 25 µg/mL; MIC [5, 20]: 3.12 µg/mL; MIC [6, 21]: 3.12 µg/mL; MIC [8, 20]: 6.25 µg/mL; MIC [9, 20]: 200 µg/mL"
"CCCCCCCCCCCCCCNCCN1CCN=CCC(C)C1=O (stereo not shown) [Example 65, 4-tetradecylaminoethyl-6-methyl-2,3,6,7-tetrahydro-1,4-diazocin-5-one]",1.56,3.12,3.12,< 1.56,3.12,12.5,6.25,100,–,6.25,–
"CCCCCCCCCCCCCCNCCN1CCCN=CC(C)(C)C1=O [Example 60, 1-tetradecylaminoethyl-3,3-dimethyl-6,7,8-trihydro-1,5-diazocin-5-one]",1.56,–,3.12,< 1.56,3.12,12.5,6.25,100,6.25,6.25,–
"CCCCCCCCCCCC(=O)NCCN1CCN=C(C)CC1=O [Example 9, 4-lauramidoethyl-7-methyl-3,6-dihydro-2H-1,4-diazepin-5-one]",–,–,–,3.12,25,25,12.5,100,12.5,6.25,"MIC [1, 24]: 6.25 µg/mL; MIC ([7]; 24 h): 6.25 µg/mL"
"CCCCCCCCCCCCCCNCCN1CCN=CC(C)(C)C1=O [Example 58, 4-tetradecylaminoethyl-6,6-dimethyl-3-hydro-2H-1,4-diazepin-5-one]",–,3.12,1.56,–,–,6.25,–,50,–,–,"MIC [1, 24]: < 1.56 µg/mL; MIC ([2]; Pasteurella multocida, 24 h): < 1.56 µg/mL; MIC [5, 13]: 3.12 µg/mL; MIC [6, 14]: 3.12 µg/mL; MIC [8, 16]: 3.12 µg/mL"
"CCCCCCCCCCCCCCC(O)CNCCN1CCN=CCC(C)C1=O (stereo not shown) [Example 66, 4-(2-hydroxyhexadecyl)aminoethyl-6-methyl-2,3,6,7-tetrahydro-1,4-diazocin-5-one]",1.56,–,3.12,< 1.56,6.25,25,6.25,200,12.5,12.5,–
CCCCCCCCCCCCC(O)CN1CCC[N+](CC(=O)[O-])=C(C)CC1=O (stereo not shown) [1-(2-hydroxy)tetradecyl-4-methyl-1-aza-5-azoniacyclooct-4-en-2-one-5-acetate],–,–,–,–,–,100,–,–,25,6.25,–
"CCCCCCCCCCCCOCCNCCN1CCN=C(C)CC1=O [Example 6, 4-dodecoxyethylaminoethyl-7-methyl-3,6-dihydro-2H-1,4-diazepin-5-one]",–,–,–,–,–,50,–,–,12.5,25,–
CCCCCCCCCCCCN1CC[N+](CC(=O)[O-])=C(C)CC1=O [4-dodecyl-7-methyl-1-azonia-4-azacyclohept-7-en-5-on-1-acetate],–,–,–,–,–,–,–,–,50,12.5,"MIC [4, 25]: 3200 µg/mL"
1-coconutalkyl-4-methyl-1-aza-5-azoniacyclooct-4-en-2-one-5-acetate,–,–,–,–,–,–,–,–,–,–,"MIC [3]: 200 µg/mL; MIC [4, 26]: 3200 µg/mL; MIC [6]: 12.5 µg/mL"
"CCCCCCCCOCCCN1CCN=C(C)CC1=O [Example 8, 4-octoxypropyl-7-methyl-3,6-dihydro-2H-1,4-diazepin-5-one]",–,–,–,–,–,–,–,–,50,50,"MIC [4, 12]: 800 µg/mL"
CCCCCCCCCCCCN1CC[N+](CC(=O)[O-])=CC(C)C1=O (stereo not shown) [4-dodecyl-6-methyl-1-azonia-4-azacyclohept-7-en-5-one-1-acetate],–,–,–,–,–,–,–,–,25,25,"MIC [4, 25]: 800 µg/mL"
1-hydroxyethyl-2-undecylimidazolineumbetaine [reference compound],–,–,–,–,–,–,–,–,–,–,"MIC [3, 26]: 3600 µg/mL; MIC [4, 26]: ≥ 10000 µg/mL; MIC [6]: 400 µg/mL"
CCCCCCCCCCCCCCNCCN1CC[N+](CC(=O)[O-])=CCCC1=O [4-tetradecylaminoethyl-4-aza-1-azoniacyclooct-8-en-5-one-1-acetate],–,–,–,–,–,100,–,–,–,6.25,"MIC ([3]; Staphylococcus aureus, FDA209P, Table 2, derivatives having a carboxylate radical, heart infusion agar, 37° C., 24 hours, read-out: MIC): 3.12 µg/mL"
"CC1=NCCN(CC(C)OCC(C)OCC(C)OCc2ccc(C)cc2)C(=O)C1 (stereo not shown) [Example 39, 4-methylbenzylpoly(2moles)oxypropyleneoxypropyl-7-methyl-3,6-dihydro-2H-1,4-diazepin-5-one]",–,–,–,–,–,200,–,–,25,50,–
